PubChem BioAssay AID248 (DTP/NCI, 2004)
Where “and” joins values, the source holds several entries; their conditions need not be identical. Identical values can stand only once. Inconclusive results and toxic doses are left out. Cut-off read from the data, not from the text of the source: active = T/C of 150% or more; inactive = T/C below 125%.

Tested on: L1210 leukemia ip in BDF1 mice, survival T/C
Assay: NCI In Vivo Anticancer Drug Screen. Data for tumor model L1210 Leukemia (intraperitoneal) in B6D2F1 (BDF1) mice
Details: endpoint: mean survival time, higher = longer survival
In short: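 Value reflects the ratio of survival in compound-treated mice to survival in vehicle-treated controls, with both groups carrying the same transplanted tumor.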

[1] = dose: 100.0 mg/kg/injection, schedule: Q01DX001 (ip), vehicle: saline
[2] = dose: 200.0 mg/kg/injection, schedule: Q01DX001 (ip), vehicle: saline
[3] = dose: 400.0 mg/kg/injection, schedule: Q01DX001 (ip), vehicle: saline
[4] = dose: 100.0 mg/kg/injection, schedule: Q04DX003 (ip), vehicle: Klucel (hydroxypropylcellulose) (HPC)
[5] = dose: 200.0 mg/kg/injection, schedule: Q04DX003 (ip), vehicle: Klucel (hydroxypropylcellulose) (HPC)
[6] = dose: 400.0 mg/kg/injection, schedule: Q04DX003 (ip), vehicle: Klucel (hydroxypropylcellulose) (HPC)
[7] = dose: 100.0 mg/kg/injection, schedule: Q01DX009 (ip), vehicle: saline
[8] = dose: 100.0 mg/kg/injection, schedule: Q04DX003 (ip), vehicle: saline with Tween-80
[9] = dose: 200.0 mg/kg/injection, schedule: Q04DX003 (ip), vehicle: saline with Tween-80
[10] = dose: 400.0 mg/kg/injection, schedule: Q04DX003 (ip), vehicle: saline with Tween-80
[11] = dose: 100.0 mg/kg/injection, schedule: Q04DX003 (ip), vehicle: saline
[12] = dose: 200.0 mg/kg/injection, schedule: Q04DX003 (ip), vehicle: saline
[13] = dose: 400.0 mg/kg/injection, schedule: Q04DX003 (ip), vehicle: saline

Measured: T/C

C[n+]1cccc2c3ccccc3c(-c3ccccc3)cc21
inactive: dose: 0.78 mg/kg/injection, schedule: Q01DX009 (ip), vehicle: water 86 % of control | dose: 1.56 mg/kg/injection, schedule: Q01DX009 (ip), vehicle: water 102 % of control | dose: 3.12 mg/kg/injection, schedule: Q01DX009 (ip), vehicle: water 87 % of control | dose: 6.25 mg/kg/injection, schedule: Q01DX009 (ip), vehicle: water 112 % of control and 92 % of control | dose: 12.5 mg/kg/injection, schedule: Q04DX003 (ip), vehicle: water 104 % of control | dose: 25.0 mg/kg/injection, schedule: Q04DX003 (ip), vehicle: water 104 % of control

CCCCOC(=S)Nc1ccc(S(=O)(=O)c2ccc(NC(=S)OCCCC)cc2)cc1
inactive: [1] 108 % of control | [2] 102 % of control | [3] 104 % of control

CCOC(=O)c1cc([N+](=O)[O-])ccc1N
inactive: [1] 100 % of control | [2] 94 % of control | [3] 94 % of control

CC1(C)CCC(C)(C)c2c1ccc(O)c2Sc1c(O)ccc2c1C(C)(C)CCC2(C)C
inactive: [1] 87 % of control

c1ccc(-c2noc(-c3ccccc3)n2)cc1
inactive: dose: 62.5 mg/kg/injection, schedule: Q04DX002 (ip), vehicle: Klucel (hydroxypropylcellulose) (HPC) 90 % of control | dose: 125.0 mg/kg/injection, schedule: Q04DX002 (ip), vehicle: Klucel (hydroxypropylcellulose) (HPC) 87 % of control | dose: 250.0 mg/kg/injection, schedule: Q04DX002 (ip), vehicle: Klucel (hydroxypropylcellulose) (HPC) 93 % of control

CCOC(=O)C1=CN=NC1=[N+]=[N-]
inactive: dose: 10.0 mg/kg/injection, schedule: Q01DX001 (ip), vehicle: saline 96 % of control | dose: 20.0 mg/kg/injection, schedule: Q01DX001 (ip), vehicle: saline 102 % of control

CC(=O)N1c2ccccc2C(=O)OC1c1ccc2c(c1)CCC2 (centres undefined)
inactive: [4] 94 % of control | [5] 89 % of control | [6] 102 % of control

COc1cc(C(=O)N=Nc2c(O)[nH]c3ccc(Br)cc23)cc(OC)c1OC
inactive: dose: 100.0 mg/kg/injection, schedule: Q04DX002 (ip), vehicle: Klucel (hydroxypropylcellulose) (HPC) 115 % of control | dose: 200.0 mg/kg/injection, schedule: Q04DX002 (ip), vehicle: Klucel (hydroxypropylcellulose) (HPC) 104 % of control | dose: 400.0 mg/kg/injection, schedule: Q04DX002 (ip), vehicle: Klucel (hydroxypropylcellulose) (HPC) 115 % of control

COC(=O)C1C=C2c3cccc4[nH]cc(c34)CC2N(C)C1 (centres undefined)
inactive: [7] 105 % of control

O=C(O)C(O)C(O)C(O)CO.[Zn+2] (centres undefined)
inactive: dose: 6.25 mg/kg/injection, schedule: Q01DX009 (ip), vehicle: saline with Tween-80 95 % of control | dose: 6.25 mg/kg/injection, schedule: Q04DX002 (ip), vehicle: saline with Tween-80 124 % of control | dose: 12.5 mg/kg/injection, schedule: Q01DX009 (ip), vehicle: saline with Tween-80 105 % of control and 100 % of control | dose: 12.5 mg/kg/injection, schedule: Q04DX002 (ip), vehicle: saline with Tween-80 109 % of control | dose: 25.0 mg/kg/injection, schedule: Q01DX009 (ip), vehicle: saline with Tween-80 91 % of control | dose: 25.0 mg/kg/injection, schedule: Q04DX002 (ip), vehicle: saline with Tween-80 95 % of control | dose: 50.0 mg/kg/injection, schedule: Q01DX009 (ip), vehicle: saline with Tween-80 91 % of control

CN(C)c1nc2nc[nH]c2c(=S)n1C
inactive: [1] 97 % of control | [2] 97 % of control | [3] 95 % of control

Cc1nc(-c2ccccc2)[nH]c(=O)c1CC(O)c1ccccc1 (centres undefined)
inactive: [4] 86 % of control | [5] 92 % of control | [6] 87 % of control

Cc1ccc(-c2nc3ncncc3[nH]2)cc1[N+](=O)[O-]
inactive: dose: 32.5 mg/kg/injection, schedule: Q01DX001 (ip), vehicle: Klucel (hydroxypropylcellulose) (HPC) 100 % of control | dose: 65.0 mg/kg/injection, schedule: Q01DX001 (ip), vehicle: Klucel (hydroxypropylcellulose) (HPC) 102 % of control | dose: 130.0 mg/kg/injection, schedule: Q01DX001 (ip), vehicle: Klucel (hydroxypropylcellulose) (HPC) 97 % of control

CC(=O)OCC1OC(Oc2ccc([N+](=O)[O-])cc2[N+](=O)[O-])C(OC(C)=O)C(OC(C)=O)C1OC(C)=O (centres undefined)
inactive: [8] 100 % of control | [9] 91 % of control | [10] 91 % of control

CC(Cc1ccccc1)Cc1ccccc1
inactive: [8] 96 % of control | [9] 88 % of control | [10] 98 % of control

Nc1cc[c]([Hg][Cl])cc1
inactive: dose: 1.0 mg/kg/injection, schedule: Q01DX009 (ip), vehicle: Klucel (hydroxypropylcellulose) (HPC) 97 % of control | dose: 1.0 mg/kg/injection, schedule: Q04DX003 (ip), vehicle: saline 102 % of control | dose: 3.0 mg/kg/injection, schedule: Q01DX009 (ip), vehicle: Klucel (hydroxypropylcellulose) (HPC) 112 % of control | dose: 3.0 mg/kg/injection, schedule: Q04DX003 (ip), vehicle: saline 96 % of control | dose: 6.0 mg/kg/injection, schedule: Q01DX009 (ip), vehicle: Klucel (hydroxypropylcellulose) (HPC) 88 % of control | dose: 6.0 mg/kg/injection, schedule: Q04DX003 (ip), vehicle: saline 95 % of control

CC(=O)c1ccc(O)c(CN(C2CCCCC2)C2CCCCC2)c1O
inactive: [1] 100 % of control | [2] 93 % of control | [3] 93 % of control

Cc1cc(NC(=O)Nc2cc(Cl)ccc2C)no1
inactive: dose: 12.5 mg/kg/injection, schedule: Q01DX009 (ip), vehicle: Klucel (hydroxypropylcellulose) (HPC) 95 % of control | dose: 25.0 mg/kg/injection, schedule: Q01DX009 (ip), vehicle: Klucel (hydroxypropylcellulose) (HPC) 106 % of control | dose: 50.0 mg/kg/injection, schedule: Q01DX009 (ip), vehicle: Klucel (hydroxypropylcellulose) (HPC) 98 % of control

CC(=O)Nc1cc([N+](=O)[O-])ccc1OCc1ccccc1
inactive: dose: 50.0 mg/kg/injection, schedule: Q01DX001 (ip), vehicle: saline 92 % of control | [1] 91 % of control | [2] 88 % of control | [3] 97 % of control

CC1=CC(C)(C)NC(=S)N1c1ccc(N=Nc2ccccc2)cc1
inactive: dose: 334.0 mg/kg/injection, schedule: Q01DX Z (ip), vehicle: methylcellulose (MC) 91 % of control | dose: 500.0 mg/kg/injection, schedule: Q01DX Z (ip), vehicle: methylcellulose (MC) 92 % of control

CC(=O)/C(C1=NCCC1)=C(/C)O
inactive: [11] 92 % of control | [12] 98 % of control | [13] 98 % of control

COC(=O)C(CCC1CCCCN1)(c1ccccc1)c1ccccc1 (centres undefined)
inactive: dose: 35.0 mg/kg/injection, schedule: Q01DX009 (ip), vehicle: saline 112 % of control and 119 % of control | dose: 50.0 mg/kg/injection, schedule: Q01DX009 (ip), vehicle: saline 120 % of control | dose: 110.0 mg/kg/injection, schedule: Q01DX009 (ip), vehicle: saline 96 % of control

O=C1CN(Br)C(=O)N1Br
inactive: [7] 105 % of control | [11] 98 % of control | dose: 200.0 mg/kg/injection, schedule: Q01DX009 (ip), vehicle: saline 107 % of control | [12] 105 % of control | [13] 100 % of control

O=C(O)CC/C(=N/OCc1cc2c(cc1Cl)OCO2)C(=O)O
inactive: dose: 100.0 mg/kg/injection, schedule: Q04DX003 (ip), vehicle: saline sonified 108 % of control | dose: 200.0 mg/kg/injection, schedule: Q04DX003 (ip), vehicle: saline sonified 93 % of control | dose: 400.0 mg/kg/injection, schedule: Q04DX003 (ip), vehicle: saline sonified 91 % of control

Cc1cccc(C(N)=S)n1
inactive: dose: 100.0 mg/kg/injection, schedule: Q01DX009 (ip), vehicle: Klucel (hydroxypropylcellulose) (HPC) 97 % of control | dose: 200.0 mg/kg/injection, schedule: Q01DX009 (ip), vehicle: Klucel (hydroxypropylcellulose) (HPC) 93 % of control

CCCCC[C@H](CN(C)C)[C@H](O)/C=C/c1ccc(Cl)cc1
inactive: dose: 12.5 mg/kg/injection, schedule: Q04DX002 (ip), vehicle: saline 113 % of control | dose: 25.0 mg/kg/injection, schedule: Q04DX002 (ip), vehicle: saline 110 % of control | dose: 50.0 mg/kg/injection, schedule: Q04DX002 (ip), vehicle: saline 102 % of control
